From patent US9872495B2, “Peptoid oligomers, pharmaceutical compositions and methods of using the same” (priority 2009, dated 2018)
Converted amounts (≈) assume the structure as drawn. Like-named read-outs stand apart in the source and are kept apart here. Numbered stars: 1 amine (or outer) side, 2 acyl side, 3 side chain; on linkers, the order of the positions; unused ones are H or OH. Square brackets hold non-standard residues; d marks the D form. Peptide text beside a SMILES is read from it. X1 = O=C(CN(CC(c1ccccc1)c1ccccc1)[*:1])[*:2]; Gly(N-(CH2)6NH2) = NCCCCCCNCC(=O)O; Gly(N(CH2)3NH2) = NCCCNCC(=O)O; NhArg = N=C(N)NCCCCNCC(=O)O; N(iPr)Gly = CC(C)NCC(=O)O; Nphe = O=C(O)CNCc1ccccc1; Orn = NCCC[C@H](N)C(=O)O; Nleu = CC(C)CNCC(=O)O; Nlys = NCCCCNCC(=O)O

Experiments:
Type in all cases: cell-based
fresh human erythrocytes = assay: Hemolytic activity
Description: Typically, toxicity is evaluated by hemolytic concentration50 (HC50), which measures the concentration of antimicrobial agents at which 50% of the erythrocytes in the culture are lysed. Significant hemolysis, as evaluated by HC50, was detectable only for peptide gramicidin S (40 μg/mL). […] In order to test hemolytic activity of peptoid oligomers further, more stringent parameters were used. Instead of HC50, hemolytic concentration10 (HC10) was used to evaluate hemolytic activity of peptoids used in this study. HC10 represents the concentration of antimicrobial agents where 10% of erythrocytes are lysed. HC10 values were detectable for only four peptoid oligomers. […] Antimicrobial activity was tested against the gram-negative strain Escherichia coli ATCC 25922, and […] strains Staphylococcus aureus ATCC 25923, and Bacillus subtilis ATCC 6633, according to the guidelines given in the document […]-A7 of the CLSI (Clinical and Laboratory Standards Institute; Clinical and Laboratory Standards Institute. Methods for Dilution Antimicrobial Susceptibility Tests for Bacteria That Grow Aerobically-Seventh Edition: Approved Standard CLSI document […]-A7. CLSI, Wayne, USA, 2006). This reference is incorporated herein in its entirety. Hemolytic activity was tested against fresh human erythrocytes.

[1] = tested on: Bacillus subtilis ATCC 6633
Description: (§1) Antimicrobial activity was tested against the gram-negative strain Escherichia coli ATCC 25922, and […] strains Staphylococcus aureus ATCC 25923, and Bacillus subtilis ATCC 6633, according to the guidelines given in the document […]-A7 of the CLSI (Clinical and Laboratory Standards Institute; Clinical and Laboratory Standards Institute. Methods for Dilution Antimicrobial Susceptibility Tests for Bacteria That Grow Aerobically-Seventh Edition: Approved Standard CLSI document […]-A7. CLSI, Wayne, USA, 2006). This reference is incorporated herein in its entirety. Hemolytic activity was tested against fresh human erythrocytes.

[2] = tested on: Staphylococcus aureus ATCC 25923
Description: as §1

[3] = tested on: Escherichia coli ATCC 25922
Description: as §1

Row | MIC B. sub ([1]; ATCC 6633) [µg/mL] | MIC S. aureus ([2]; ATCC 25923) [µg/mL] | MIC E. coli ([3]; ATCC 25922) [µg/mL] | SMILES | HC10 (concentration where 10% hemolysis is observed) (fresh human erythrocytes; red cells of human) [µg/mL] | HC50 (concentration where 50% hemolysis is observed) (fresh human erythrocytes; red cells of human) [µg/mL] | HC10 (concentration where 10% hemolysis is observed) (fresh human erythrocytes; fresh human erythrocytes) [µg/mL] | HC50 (concentration where 50% hemolysis is observed) (fresh human erythrocytes; fresh human erythrocytes) [µg/mL] | MIC B. sub ([1]; B. subtilis ATCC 6633) [µg/mL] | MIC S. aureus ([2]; S. aureus ATCC 25923) [µg/mL] | MIC E. coli ([3]; E. coli ATCC 25922) [µg/mL] | HC50 (concentration where 50% hemolysis is observed) (fresh human erythrocytes) [µg/mL]
1 | 31.3 (≈ 35.7 µM) | >500 | >500 | CC(=O)N(CC(=O)N(CCCN)CC(=O)N(CC(=O)N(CCCN)CC(=O)N(CC(=O)N(CC(N)=O)Cc1ccccc1)Cc1ccccc1)Cc1ccccc1)Cc1ccccc1 [Compound 10, Ac(NpmNap)2Npm2] (Ac-[Nphe][Gly(N(CH2)3NH2)][Nphe][Gly(N(CH2)3NH2)][Nphe][Nphe]-NH2) | >250 | >250 | – | – | – | – | – | –
2 | >500 | >500 | >500 | CC(=O)N(CCCCN)CC(=O)N(CC(=O)N(CCCCN)CC(=O)N(CC(=O)N(CCCCN)CC(=O)N(CC(N)=O)Cc1ccccc1)Cc1ccccc1)Cc1ccccc1 [Compound 14, Ac(NabNpm)3] (Ac-[Nlys][Nphe][Nlys][Nphe][Nlys][Nphe]-NH2) | >250 | >250 | – | – | – | – | – | –
3 | 125 (≈ 131 µM) | 250 (≈ 263 µM) | 250 (≈ 263 µM) | N=C(N)NCCCCN1CC(=O)N(Cc2ccccc2)CC(=O)N(CCCCNC(=N)N)CC(=O)N(Cc2ccccc2)CC(=O)N(CCCCNC(=N)N)CC(=O)N(Cc2ccccc2)CC1=O [Compound 18, C(NgbNpm)3] (cyclo([Nphe][NhArg][Nphe][NhArg][Nphe][NhArg])) | >250 | >250 | – | – | – | – | – | –
4 | 500 (≈ 549 µM) | >500 | 500 (≈ 549 µM) | NCCCCCCN1CC(=O)N(Cc2ccccc2)CC(=O)N(CCCCCCN)CC(=O)N(Cc2ccccc2)CC(=O)N(CCCCCCN)CC(=O)N(Cc2ccccc2)CC1=O [Compound 19, C(NahNpm)3] (cyclo([Nphe][Gly(N-(CH2)6NH2)][Nphe][Gly(N-(CH2)6NH2)][Nphe][Gly(N-(CH2)6NH2)])) | >250 | >250 | – | – | – | – | – | –
5 | 1 (≈ 0.948 µM) | 7.8 (≈ 7.4 µM) | 15.6 (≈ 14.8 µM) | NCCCN1CC(=O)N(CC(c2ccccc2)c2ccccc2)CC(=O)N(CCCN)CC(=O)N(CC(c2ccccc2)c2ccccc2)CC(=O)N(CCCN)CC(=O)N(CC(c2ccccc2)c2ccccc2)CC1=O [Compound 20, C(NapNdp)3] | >31.3 | >250 | – | – | – | – | – | –
6 | 0.5 (≈ 0.535 µM) | 31.3 (≈ 33.5 µM) | 31.3 (≈ 33.5 µM) | NCCCN1CC(=O)N(Cc2ccc3ccccc3c2)CC(=O)N(CCCN)CC(=O)N(Cc2ccc3ccccc3c2)CC(=O)N(CCCN)CC(=O)N(Cc2ccc3ccccc3c2)CC1=O [Compound 21, C(NapNnm)3] | >250 | >250 | – | – | – | – | – | –
7 | >500 | >500 | >500 | NCCCN1CC(=O)N(CCCN)CC(=O)N(Cc2ccccc2)CC(=O)N(CCCN)CC(=O)N(Cc2ccccc2)CC(=O)N(CCCN)CC1=O [Compound 22, C(NapNpm)2Nap2] (cyclo([Nphe][Gly(N(CH2)3NH2)][Nphe][Gly(N(CH2)3NH2)][Gly(N(CH2)3NH2)][Gly(N(CH2)3NH2)])) | >250 | >250 | – | – | – | – | – | –
8 | 500 (≈ 638 µM) | 500 (≈ 638 µM) | >500 | NCCCN1CC(=O)N(Cc2ccccc2)CC(=O)N(CCCN)CC(=O)N(Cc2ccccc2)CC(=O)N(CCCN)CC(=O)N(Cc2ccccc2)CC1=O [Compound 23, C(NapNpm)3] (cyclo([Nphe][Gly(N(CH2)3NH2)][Nphe][Gly(N(CH2)3NH2)][Nphe][Gly(N(CH2)3NH2)])) | >250 | >250 | – | – | – | – | – | –

Continued, compound first:

Row | SMILES | MIC B. sub ([1]; ATCC 6633) [µg/mL] | MIC S. aureus ([2]; ATCC 25923) [µg/mL] | MIC E. coli ([3]; ATCC 25922) [µg/mL] | HC10 (concentration where 10% hemolysis is observed) (fresh human erythrocytes; red cells of human) [µg/mL] | HC50 (concentration where 50% hemolysis is observed) (fresh human erythrocytes; red cells of human) [µg/mL] | HC10 (concentration where 10% hemolysis is observed) (fresh human erythrocytes; fresh human erythrocytes) [µg/mL] | HC50 (concentration where 50% hemolysis is observed) (fresh human erythrocytes; fresh human erythrocytes) [µg/mL] | MIC B. sub ([1]; B. subtilis ATCC 6633) [µg/mL] | MIC S. aureus ([2]; S. aureus ATCC 25923) [µg/mL] | MIC E. coli ([3]; E. coli ATCC 25922) [µg/mL] | HC50 (concentration where 50% hemolysis is observed) (fresh human erythrocytes) [µg/mL]
9 | CC(=O)N(CCCN)CC(=O)N(CC(=O)N(CCCN)CC(=O)N(CC(=O)N(CCCN)CC(=O)N(CC(=O)N(CCCN)CC(=O)N(CC(=O)N(CCCN)CC(=O)N(CC(N)=O)Cc1ccccc1)Cc1ccccc1)Cc1ccccc1)Cc1ccccc1)Cc1ccccc1 [Compound 9, Ac(NapNpm)5] (Ac-[Gly(N(CH2)3NH2)][Nphe][Gly(N(CH2)3NH2)][Nphe][Gly(N(CH2)3NH2)][Nphe][Gly(N(CH2)3NH2)][Nphe][Gly(N(CH2)3NH2)][Nphe]-NH2) | 15.6 (≈ 11.4 µM) | 62.5 (≈ 45.8 µM) | 31.3 (≈ 22.9 µM) | >250 | >250 | – | – | – | – | – | –
10 | CC(=O)N(CC(=O)N(CCCN)CC(=O)N(CC(=O)N(CC(=O)N1CCC[C@H]1C(=O)N(CC(=O)N(CCCN)CC(=O)N(CC(=O)N(CC(=O)N1CCC[C@H]1C(N)=O)Cc1ccccc1)CC(C)C)C(C)C)Cc1ccccc1)CC(C)C)C(C)C [Compound 11, Ac(NipNapNibNpmPro)2] (Ac-[N(iPr)Gly][Gly(N(CH2)3NH2)][Nleu][Nphe]P[N(iPr)Gly][Gly(N(CH2)3NH2)][Nleu][Nphe]P-NH2) | – | – | – | – | – | >250 | >250 | >500 | >500 | >500 | –
11 | CC(=O)N(CC(=O)N(CC(=O)N(CCCCNC(=N)N)CC(=O)N(CC(=O)N1CCC[C@H]1C(=O)N(CC(=O)N(CC(=O)N(CCCCNC(=N)N)CC(=O)N(CC(=O)N1CCC[C@H]1C(N)=O)C(C)C)CC(C)C)CC(c1ccccc1)c1ccccc1)C(C)C)CC(C)C)CC(c1ccccc1)c1ccccc1 [Compound 12, Ac(NdpNibNgbNipPro)2] (Ac-[X1][Nleu][NhArg][N(iPr)Gly]P[X1][Nleu][NhArg][N(iPr)Gly]P-NH2) | 500 (≈ 335 µM) | 500 (≈ 335 µM) | 250 (≈ 167 µM) | >250 | >250 | – | – | – | – | – | –
12 | CC(=O)N(CC(=O)N(CC(=O)N(CCCN)CC(=O)N(CC(=O)N1CCCC1C(=O)N(CC(=O)N(CC(=O)N(CCCN)CC(=O)N(CC(=O)N1CCCC1C(N)=O)C(C)C)CC(C)C)Cc1ccccc1)C(C)C)CC(C)C)Cc1ccccc1 (stereo not drawn) [Compound 13, Ac(NpmNibNapNipPro)2] (Ac-[Nphe][Nleu][Gly(N(CH2)3NH2)][N(iPr)Gly]P[Nphe][Nleu][Gly(N(CH2)3NH2)][N(iPr)Gly]P-NH2; configuration not given here) | >500 | >500 | >500 | >250 | >250 | – | – | – | – | – | –
13 | CC(=O)N(CCCCNC(=N)N)CC(=O)N(CC(=O)N(CCCCNC(=N)N)CC(=O)N(CC(=O)N(CCCCNC(=N)N)CC(=O)N(CC(=O)N(CCCCNC(=N)N)CC(=O)N(CC(=O)N(CCCCNC(=N)N)CC(=O)N(CC(N)=O)CC(c1ccccc1)c1ccccc1)CC(c1ccccc1)c1ccccc1)CC(c1ccccc1)c1ccccc1)CC(c1ccccc1)c1ccccc1)CC(c1ccccc1)c1ccccc1 [Compound 15, Ac(NgbNdp)5] | 62.5 (≈ 29.8 µM) | 62.5 (≈ 29.8 µM) | 31.3 (≈ 14.9 µM) | >250 | >250 | – | – | – | – | – | –
14 | CC(=O)N(CC(=O)N(CCCCNC(=N)N)CC(=O)N(CC(=O)N(CCCCNC(=N)N)CC(=O)N(CC(=O)N(CC(N)=O)CC(c1ccccc1)c1ccccc1)CC(c1ccccc1)c1ccccc1)CC(c1ccccc1)c1ccccc1)CC(c1ccccc1)c1ccccc1 [Compound 16, Ac(NdpNgb)2Ndp2] | – | – | – | – | – | 250 | >250 | >500 | 62.5 (≈ 46.3 µM) | >500 | –
15 | CC(C)C[C@@H]1NC(=O)[C@H](CCCN)NC(=O)[C@H](C(C)C)NC(=O)[C@@H]2CCCN2C(=O)[C@@H](Cc2ccccc2)NC(=O)[C@H](CC(C)C)NC(=O)[C@H](CCCN)NC(=O)[C@H](C(C)C)NC(=O)[C@@H]2CCCN2C(=O)[C@@H](Cc2ccccc2)NC1=O [Compound 17, Gramicidin S, reference compound] (cyclo(V[Orn]L[dF]PV[Orn]L[dF]P)) | 2 (≈ 1.75 µM) | 15.6 (≈ 13.7 µM) | 15.6 (≈ 13.7 µM) | >15.6 | – | – | – | – | – | – | 40
